As for `Cc1ccc(C(=O)Nc2ccc(C#N)cc2)cc1Nc1ncc(-c2cccnc2)o1` [Compound 058, N-(4-Cyano-phenyl)-4-methyl-3-(5-pyridin-3-yl-oxazol-2-ylamino)-benzamide], the melting point was determined as 203 °C.

On to `Cc1ccc(NC(=O)c2cccc(N(C)C)c2)cc1Nc1ncc(-c2cccnc2)o1` [Compound 010, 3-Dimethylamino-N-[4-methyl-3-(5-pyridin-3-yl-oxazol-2-ylamino)-phenyl]-benzamide], for which the melting point was 228 °C.

One may read the melting point as the temperature of the solid-liquid transition.
